What follows are compounds tested against Tumor necrosis factor (Homo sapiens, UniProt P01375) (assay: TNF-alpha RELEASE).
Tumor necrosis factor, sequence (P01375 whole entry): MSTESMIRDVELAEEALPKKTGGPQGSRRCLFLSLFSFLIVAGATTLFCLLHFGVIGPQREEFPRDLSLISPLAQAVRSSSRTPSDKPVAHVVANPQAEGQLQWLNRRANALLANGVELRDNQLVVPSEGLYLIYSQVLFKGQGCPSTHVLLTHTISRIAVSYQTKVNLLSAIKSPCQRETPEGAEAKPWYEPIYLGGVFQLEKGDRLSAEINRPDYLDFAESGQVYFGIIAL
Experimental: Human peripheral blood mononuclear cells (PBMC) were isolated from fresh buffy coats by density centrifugation using lymphoprep tubes (Medinor). Frozen PBMC's were washed in serum free assay buffer (RPMI1640 with 25 mM HEPES, 1% pen/strep, […], 0.5% human serum albumin) and living cells counted. Lipopolysaccharide (1 microg/ml; SIGMA) was added to the cells which were then transferred to 384 well tissue culture plates (5×105 c/ml) containing titrated test compounds. The cells were incubated for 18 hours at 37° C. in serum free assay buffer and the level of TNFalpha in the supernatant was quantitated by AlphaLISA (PerkinElmer) by measuring fluorescence intensity at 615 nm.Results were expressed as IC50 values calculated from inhibition curves using as controls the secretion in LPS stimulated wells and the secretion in cells incubated with 10 microM of a PDE4 inhibitor reference compound.
In the case of `CC(=O)N1CCC(Nc2nc(N3CC(OC(=O)c4cscn4)C3)nc3c2[S+]([O-])CC3)CC1` (centres undefined) [US11365204, Example 76], the IC50 is reported as over 0.5 µM.
In the case of `CC(=O)N1CC[C@H](Nc2nc(N3CC(OC(=O)c4cscn4)C3)nc3c2[S@+]([O-])CC3)C1` [US11365204, Example 73], the IC50 is reported as 0.3 µM.
With `CC(=O)N1CC[C@H](Nc2nc(N3CC(OC(=O)c4cnsc4)C3)nc3c2[S@+]([O-])CC3)C1` [US11365204, Example 72] the IC50 was under 0.1 µM.
`CC(=O)N1CC[C@H](Nc2nc(N3CC(OC(=O)C4CCOCC4)C3)nc3c2[S@+]([O-])CC3)C1` [US11365204, Example 74] was tested, and the IC50 was 0.3 µM.
